# Reference: PubChem BioAssay (NCI)
#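 Each compound was tested at five concentrations against cells in 96-well plates for 48 hours. GI50 is the concentration that inhibits growth by half. TGI denotes the concentration required for complete inhibition of growth.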
# Key:
# Assay in all cases: DTP human tumour cell line panel, 48 h
# [1] = test system: 786-0 renal
# [2] = test system: A498 renal
# [3] = test system: A549 NSCLC
# [4] = test system: ACHN renal
# [5] = test system: BT-549 breast
# [6] = test system: CAKI-1 renal
# [7] = test system: CCRF-CEM leukemia
# [8] = test system: COLO 205 colon
# [9] = test system: DU-145 prostate
# [10] = test system: EKVX NSCLC
# [11] = test system: HCC-2998 colon
# [12] = test system: HCT-116 colon
# [13] = test system: HL-60(TB) leukemia
# [14] = test system: HOP-62 NSCLC
# [15] = test system: HOP-92 NSCLC
# [16] = test system: HS 578T breast
# [17] = test system: HT29 colon
# [18] = test system: IGROV1 ovarian
# [19] = test system: K-562 leukemia
# [20] = test system: KM12 colon
# [21] = test system: M14 melanoma
# [22] = test system: MALME-3M melanoma
# [23] = test system: MCF7 breast
# [24] = test system: MDA-MB-231 breast
# [25] = test system: MDA-MB-435
# [26] = test system: MOLT-4 leukemia
# [27] = test system: NCI-H23 lung
# [28] = test system: NCI-H460 lung
# [29] = test system: NCI-H522 lung
# [30] = test system: NCI/ADR-RES ovarian
# [31] = test system: OVCAR-4 ovarian
# [32] = test system: OVCAR-5 ovarian
# [33] = test system: OVCAR-8 ovarian
# [34] = test system: PC-3 prostate
# [35] = test system: RPMI-8226 leukemia
# [36] = test system: RXF 393 renal
# [37] = test system: SF-268 CNS
# [38] = test system: SF-295 CNS
# [39] = test system: SF-539 CNS
# [40] = test system: SK-MEL-2 melanoma
# [41] = test system: SK-MEL-28 melanoma
# [42] = test system: SK-MEL-5 melanoma
# [43] = test system: SK-OV-3 ovarian
# [44] = test system: SN12C renal
# [45] = test system: SNB-19 CNS
# [46] = test system: SNB-75 CNS
# [47] = test system: SW-620 colon
# [48] = test system: T-47D breast
# [49] = test system: TK-10 renal
# [50] = test system: U251 CNS
# [51] = test system: UACC-257 melanoma
# [52] = test system: UACC-62 melanoma
# [53] = test system: UO-31 renal
compound,measurement,setting,value
C=C(C=O)[C@@H]1CC[C@]2(C(=O)O)CC[C@]3(C)C(CC[C@@H]4[C@@](C)(CCC#N)[C@H](C(=C)C=O)CC[C@]43C)[C@@H]12 (stereo partly specified),GI50,[1],1.86 µM
same,TGI,[1],3.8 µM
same,GI50,[2],14.2 µM
same,TGI,[2],29.3 µM
same,GI50,[3],7.29 µM
same,TGI,[3],23.9 µM
same,GI50,[4],3.26 µM
same,TGI,[4],10.5 µM
same,GI50,[5],1.82 µM
same,TGI,[5],3.57 µM
same,GI50,[6],3.38 µM
same,TGI,[6],15.4 µM
same,GI50,[7],2.78 µM
same,TGI,[7],8.75 µM
same,GI50,[8],10.9 µM
same,TGI,[8],27.7 µM
same,GI50,[9],3.72 µM
same,TGI,[9],12.7 µM
same,GI50,[10],6.64 µM
same,TGI,[10],23.9 µM
same,GI50,[11],1.93 µM
same,TGI,[11],3.81 µM
same,GI50,[12],1.8 µM
same,TGI,[12],3.46 µM
same,GI50,[13],2.02 µM
same,TGI,[13],7.8 µM
same,GI50,[14],2.08 µM
same,TGI,[14],4.67 µM
same,GI50,[15],1.37 µM
same,TGI,[15],3.55 µM
same,GI50,[16],3.17 µM
same,TGI,[16],18.9 µM
same,GI50,[17],1.99 µM
same,TGI,[17],4.03 µM
same,GI50,[18],2.82 µM
same,TGI,[18],8.47 µM
same,GI50,[19],2.76 µM
same,TGI,[19],9.34 µM
same,GI50,[20],3.22 µM
same,TGI,[20],10.6 µM
same,GI50,[21],1.92 µM
same,TGI,[21],4.1 µM
same,GI50,[22],2.53 µM
same,TGI,[22],8.01 µM
same,GI50,[23],2.9 µM
same,TGI,[23],12.1 µM
same,GI50,[24],3.05 µM
same,TGI,[24],9.1 µM
same,GI50,[25],3.21 µM
same,TGI,[25],11.4 µM
same,GI50,[26],2.71 µM
same,TGI,[26],13.7 µM
same,GI50,[27],2.13 µM
same,TGI,[27],4.87 µM
same,GI50,[28],5.56 µM
same,TGI,[28],19.8 µM
same,GI50,[29],2.26 µM
same,TGI,[29],6.2 µM
same,GI50,[30],3.87 µM
same,TGI,[30],34.5 µM
same,GI50,[31],4.22 µM
same,TGI,[31],23.5 µM
same,GI50,[32],2.37 µM
same,TGI,[32],6.69 µM
same,GI50,[33],2.59 µM
same,TGI,[33],7.06 µM
same,GI50,[34],1.95 µM
same,TGI,[34],5.28 µM
same,GI50,[35],2.63 µM
same,TGI,[35],7.26 µM
same,GI50,[36],1.98 µM
same,TGI,[36],3.68 µM
same,GI50,[37],6.22 µM
same,TGI,[37],26.2 µM
same,GI50,[38],3.07 µM
same,TGI,[38],11.6 µM
same,GI50,[39],2.91 µM
same,TGI,[39],9.31 µM
same,GI50,[40],1.99 µM
same,TGI,[40],4.01 µM
same,GI50,[41],2.45 µM
same,TGI,[41],6.22 µM
same,GI50,[42],1.78 µM
same,TGI,[42],3.33 µM
same,GI50,[43],8.49 µM
same,TGI,[43],23.1 µM
same,GI50,[44],3.2 µM
same,TGI,[44],15.2 µM
same,GI50,[45],3.93 µM
same,TGI,[45],18.3 µM
same,GI50,[46],6.07 µM
same,TGI,[46],22.3 µM
same,GI50,[47],2.18 µM
same,TGI,[47],4.79 µM
same,GI50,[48],3.28 µM
same,TGI,[48],15.2 µM
same,GI50,[49],3.34 µM
same,TGI,[49],13.5 µM
same,GI50,[50],1.88 µM
same,TGI,[50],3.84 µM
same,GI50,[51],1.8 µM
same,TGI,[51],3.88 µM
same,GI50,[52],2 µM
same,TGI,[52],4.88 µM
same,GI50,[53],2.5 µM
same,TGI,[53],8.02 µM
